# Measurements reported in ChEMBL document CHEMBL1142130, “Quinolone resistance in Helicobacter pylori isolates in Germany” (2007).
# Key:
# Type in all cases: functional
# [1] = test system: Helicobacter pylori; experiment: Antimicrobial activity against ciprofloxacin-resistant Helicobacter pylori 4 containing gyrA C261G mutation by Etest method
# [2] = test system: Helicobacter pylori; experiment: Antimicrobial activity against ciprofloxacin-resistant Helicobacter pylori 14 containing gyrA A272G mutation by Etest method
# [3] = test system: Helicobacter pylori; experiment: Antimicrobial activity against ciprofloxacin-resistant Helicobacter pylori 12 containing gyrA G271A mutation by Etest method
# [4] = test system: Helicobacter pylori; experiment: Antimicrobial activity against ciprofloxacin-resistant Helicobacter pylori 4 containing gyrA G271T mutation by Etest method
# [5] = test system: Helicobacter pylori; experiment: Antimicrobial activity against ciprofloxacin-resistant Helicobacter pylori 26 containing gyrA C261A mutation by Etest method
structure (smiles),measurement,setting,value
O=C(O)c1cn(C2CC2)c2cc(N3CCNCC3)c(F)cc2c1=O [CIPROFLOXACIN],MIC,[1],4 µg/mL
same,MIC,[2],16 µg/mL
same,MIC,[3],16 µg/mL
same,MIC,[4],8 µg/mL
same,MIC,[5],4 µg/mL
